Inconclusive results and toxic doses are left out.
Test system: L1210 leukemia ip in BDF1 mice, survival T/C
Assay: NCI In Vivo Anticancer Drug Screen. Data for tumor model L1210 Leukemia (intraperitoneal) in B6D2F1 (BDF1) mice
Details: endpoint: mean survival time, higher = longer survival
In short: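 Each compound was tested against a transplantable tumor grown in mice. The endpoint was survival, with treated animals benchmarked against vehicle controls as a simple ratio.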

[1] = dose: 100.0 mg/kg/injection, schedule: Q01DX001 (ip), vehicle: saline
[2] = dose: 200.0 mg/kg/injection, schedule: Q01DX001 (ip), vehicle: saline
[3] = dose: 400.0 mg/kg/injection, schedule: Q01DX001 (ip), vehicle: saline
[4] = dose: 100.0 mg/kg/injection, schedule: Q04DX003 (ip), vehicle: saline with Tween-80
[5] = dose: 200.0 mg/kg/injection, schedule: Q04DX003 (ip), vehicle: saline with Tween-80
[6] = dose: 400.0 mg/kg/injection, schedule: Q04DX003 (ip), vehicle: saline with Tween-80
[7] = dose: 100.0 mg/kg/injection, schedule: Q04DX003 (ip), vehicle: Klucel (hydroxypropylcellulose) (HPC)
[8] = dose: 200.0 mg/kg/injection, schedule: Q04DX003 (ip), vehicle: Klucel (hydroxypropylcellulose) (HPC)
[9] = dose: 100.0 mg/kg/injection, schedule: Q01DX009 (ip), vehicle: saline with Tween-80
[10] = dose: 200.0 mg/kg/injection, schedule: Q01DX009 (ip), vehicle: saline with Tween-80
[11] = dose: 400.0 mg/kg/injection, schedule: Q01DX009 (ip), vehicle: saline with Tween-80
[12] = dose: 100.0 mg/kg/injection, schedule: Q01DX001 (ip), vehicle: carboxymethylcellulose (CMC)
[13] = dose: 200.0 mg/kg/injection, schedule: Q01DX001 (ip), vehicle: carboxymethylcellulose (CMC)
[14] = dose: 75.0 mg/kg/injection, schedule: Q01DX001 (ip), vehicle: saline
[15] = dose: 150.0 mg/kg/injection, schedule: Q01DX001 (ip), vehicle: saline

## N=C(N)N=Nc1ccc(NN=C(N)N)c2ccccc12
dose: 15.0 mg/kg/injection, schedule: Q01DX Z (ip), vehicle: saline
  T/C: 94 % of control
dose: 15.0 mg/kg/injection, schedule: Q01DX Z (oral), vehicle: other
  T/C: 103 % of control
dose: 30.0 mg/kg/injection, schedule: Q01DX Z (ip), vehicle: saline
  T/C: 102 % of control
dose: 30.0 mg/kg/injection, schedule: Q01DX Z (oral), vehicle: other
  T/C: 98 % of control
dose: 60.0 mg/kg/injection, schedule: Q01DX Z (oral), vehicle: other
  T/C: 98 % of control
dose: 120.0 mg/kg/injection, schedule: Q01DX Z (oral), vehicle: other
  T/C: 95 % of control

## O=c1c(Cl)c(C(Cl)(Cl)Cl)[nH]c2ccccc12
dose: 25.0 mg/kg/injection, schedule: Q01DX001 (ip), vehicle: saline with Tween-80
  T/C: 104 % of control
dose: 50.0 mg/kg/injection, schedule: Q01DX001 (ip), vehicle: saline with Tween-80
  T/C: 106 % of control

## COc1ccc(OC)c2c1CCCC2=O
dose: 50.0 mg/kg/injection, schedule: Q01DX001 (ip), vehicle: saline
  T/C: 96 % of control
[1]
  T/C: 99 % of control
[2]
  T/C: 91 % of control
[3]
  T/C: 96 % of control

## O=C(CNC(=O)c1ccccc1)Nc1ccc([N+](=O)[O-])cc1
[1]
  T/C: 100 % of control
[2]
  T/C: 100 % of control
[3]
  T/C: 94 % of control

## CC1=NC(=NC(=O)c2ccccc2)N=C1
[4]
  T/C: 97 % of control
[5]
  T/C: 96 % of control
[6]
  T/C: 96 % of control

## COc1ccc(OC)c(NC(=O)C2CC2)c1
dose: 100.0 mg/kg/injection, schedule: Q04DX003 (ip), vehicle: saline
  T/C: 94 % of control
dose: 200.0 mg/kg/injection, schedule: Q04DX003 (ip), vehicle: saline
  T/C: 99 % of control
dose: 400.0 mg/kg/injection, schedule: Q04DX003 (ip), vehicle: saline
  T/C: 103 % of control

## Cc1ccc(NC(=S)N2CCC(CCCC3CCN(C(=S)Nc4ccc(C)cc4C)CC3)CC2)c(C)c1
dose: 50.0 mg/kg/injection, schedule: Q01DX009 (ip), vehicle: Klucel (hydroxypropylcellulose) (HPC)
  T/C: 98 % of control
dose: 100.0 mg/kg/injection, schedule: Q01DX009 (ip), vehicle: Klucel (hydroxypropylcellulose) (HPC)
  T/C: 107 % of control
[7]
  T/C: 97 % of control
dose: 200.0 mg/kg/injection, schedule: Q01DX009 (ip), vehicle: Klucel (hydroxypropylcellulose) (HPC)
  T/C: 95 % of control
[8]
  T/C: 95 % of control

## O=C(O)c1ccc2c(c1)C(Br)(Br)C2(Br)Br
[9]
  T/C: 98 % of control
[10]
  T/C: 101 % of control
[11]
  T/C: 103 % of control

## N#Cc1c(F)c(F)c(C#N)c(F)c1F
dose: 1.25 mg/kg/injection, schedule: Q01DX009 (ip), vehicle: Klucel (hydroxypropylcellulose) (HPC)
  T/C: 97 % of control
dose: 2.5 mg/kg/injection, schedule: Q01DX009 (ip), vehicle: Klucel (hydroxypropylcellulose) (HPC)
  T/C: 95 % of control
dose: 5.0 mg/kg/injection, schedule: Q01DX001 (ip), vehicle: saline
  T/C: 98 % of control
dose: 5.0 mg/kg/injection, schedule: Q01DX009 (ip), vehicle: Klucel (hydroxypropylcellulose) (HPC)
  T/C: 103 % of control
dose: 10.0 mg/kg/injection, schedule: Q01DX001 (ip), vehicle: saline
  T/C: 102 % of control
dose: 10.0 mg/kg/injection, schedule: Q01DX009 (ip), vehicle: Klucel (hydroxypropylcellulose) (HPC)
  T/C: 104 % of control

## COc1ccc(CC(=O)NC(N)=O)cc1
[4]
  T/C: 101 % of control
[5]
  T/C: 97 % of control
[6]
  T/C: 90 % of control

## NC(N)=NNC=NCCc1ccc(O)cc1
dose: 15.0 mg/kg/injection, schedule: Q01DX Z (ip), vehicle: carboxymethylcellulose (CMC)
  T/C: 107 % of control
dose: 30.0 mg/kg/injection, schedule: Q01DX Z (ip), vehicle: carboxymethylcellulose (CMC)
  T/C: 98 % of control
dose: 60.0 mg/kg/injection, schedule: Q01DX Z (ip), vehicle: carboxymethylcellulose (CMC)
  T/C: 101 % of control
dose: 120.0 mg/kg/injection, schedule: Q01DX Z (ip), vehicle: carboxymethylcellulose (CMC)
  T/C: 103 % of control

## O/N=C1/CCCC/C1=C/c1ccccc1Cl
[4]
  T/C: 92 % of control
[5]
  T/C: 100 % of control
[6]
  T/C: 100 % of control

## CCCC(C(CC)CNC(=O)Nc1cccc2ccccc12)N(C)C(=O)Nc1cccc2ccccc12 (stereo unspecified)
dose: 50.0 mg/kg/injection, schedule: Q01DX001 (ip), vehicle: carboxymethylcellulose (CMC)
  T/C: 109 % of control
[12]
  T/C: 102 % of control
[13]
  T/C: 103 % of control
dose: 400.0 mg/kg/injection, schedule: Q01DX001 (ip), vehicle: carboxymethylcellulose (CMC)
  T/C: 96 % of control

## C\C(=C/C(=N/N=C/c1ccco1)c1ccccc1)c1ccccc1
[14]
  T/C: 103 % of control
[15]
  T/C: 104 % of control

## O=c1ccccn1CCc1ccccc1
dose: 12.5 mg/kg/injection, schedule: Q04DX003 (ip), vehicle: saline with Tween-80
  T/C: 95 % of control
dose: 25.0 mg/kg/injection, schedule: Q04DX003 (ip), vehicle: saline with Tween-80
  T/C: 101 % of control
dose: 50.0 mg/kg/injection, schedule: Q04DX003 (ip), vehicle: saline with Tween-80
  T/C: 97 % of control

## CCCCCCC(C)N(C)CCOC(=O)c1ccc([N+](=O)[O-])cc1 (stereo unspecified)
dose: 75.0 mg/kg/injection, schedule: Q01DX001 (ip), vehicle: other
  T/C: 101 % of control
dose: 150.0 mg/kg/injection, schedule: Q01DX001 (ip), vehicle: other
  T/C: 106 % of control

## CCCC#CC(=O)OCCCCCC
dose: 100.0 mg/kg/injection, schedule: Q04DX002 (ip), vehicle: saline
  T/C: 96 % of control
dose: 200.0 mg/kg/injection, schedule: Q04DX002 (ip), vehicle: saline
  T/C: 111 % of control
dose: 400.0 mg/kg/injection, schedule: Q04DX002 (ip), vehicle: saline
  T/C: 103 % of control

## COc1cc(C=Nc2ccc(-c3csc(-c4ccccc4)n3)c(Cl)c2)ccc1N(CCCl)CCCl
dose: 13.3 mg/kg/injection, schedule: Q01DX001 (ip), vehicle: carboxymethylcellulose (CMC)
  T/C: 122 % of control
dose: 20.0 mg/kg/injection, schedule: Q01DX009 (ip), vehicle: carboxymethylcellulose (CMC)
  T/C: 158 % of control
[12]
  T/C: 166 % of control
[13]
  T/C: 95 % of control

## CCc1cc(C)cc(OC(=O)Nc2ccccc2)c1
[9]
  T/C: 87 % of control
[4]
  T/C: 93 % of control
[10]
  T/C: 88 % of control
[5]
  T/C: 93 % of control
[11]
  T/C: 92 % of control

## O=C(Nc1cccc2ccccc12)c1ccc([N+](=O)[O-])s1
dose: 50.0 mg/kg/injection, schedule: Q01DX005 (ip), vehicle: water
  T/C: 87 % of control
dose: 100.0 mg/kg/injection, schedule: Q01DX005 (ip), vehicle: water
  T/C: 89 % of control
dose: 200.0 mg/kg/injection, schedule: Q01DX005 (ip), vehicle: water
  T/C: 87 % of control
dose: 400.0 mg/kg/injection, schedule: Q01DX005 (ip), vehicle: water
  T/C: 91 % of control

## COC1OC(CBr)C(OC(=O)c2ccccc2)C(OC(=O)c2ccccc2)C1OS(=O)(=O)c1ccc(C)cc1 (stereo unspecified)
dose: 50.0 mg/kg/injection, schedule: Q04DX002 (ip), vehicle: Klucel (hydroxypropylcellulose) (HPC)
  T/C: 97 % of control
dose: 100.0 mg/kg/injection, schedule: Q04DX002 (ip), vehicle: Klucel (hydroxypropylcellulose) (HPC)
  T/C: 87 % of control
dose: 200.0 mg/kg/injection, schedule: Q04DX002 (ip), vehicle: Klucel (hydroxypropylcellulose) (HPC)
  T/C: 97 % of control

## Nc1ccn(C2OC(COP(=O)(O)Oc3ccccc3)C(O)C2O)c(=O)n1 (stereo unspecified)
[14]
  T/C: 109 % of control
[15]
  T/C: 113 % of control

## S=C(Nc1nccs1)Nc1nccs1
dose: 100.0 mg/kg/injection, schedule: Q01DX001 (ip), vehicle: Klucel (hydroxypropylcellulose) (HPC)
  T/C: 100 % of control
dose: 200.0 mg/kg/injection, schedule: Q01DX001 (ip), vehicle: Klucel (hydroxypropylcellulose) (HPC)
  T/C: 97 % of control
dose: 400.0 mg/kg/injection, schedule: Q01DX001 (ip), vehicle: Klucel (hydroxypropylcellulose) (HPC)
  T/C: 89 % of control

## COC(=O)c1cc(=O)c2c(=O)[nH]c(=O)n(C)c2[nH]1
[7]
  T/C: 94 % of control
[8]
  T/C: 101 % of control
dose: 400.0 mg/kg/injection, schedule: Q04DX003 (ip), vehicle: Klucel (hydroxypropylcellulose) (HPC)
  T/C: 95 % of control

## CCCCCCCCCCCC[N+](CCO)(CCO)Cc1ccccc1
dose: 3.12 mg/kg/injection, schedule: Q01DX009 (ip), vehicle: saline
  T/C: 96 % of control
dose: 6.25 mg/kg/injection, schedule: Q01DX009 (ip), vehicle: saline
  T/C: 98 % of control
dose: 12.5 mg/kg/injection, schedule: Q04DX003 (ip), vehicle: saline
  T/C: 88 % of control
